Reference: US20200239530A1, “COMPOUNDS AND METHODS OF MODULATING PROTEIN DEGRADATION” (Vividion Therapeutics, Inc., priority 2017, published 2020)

What was measured:
Assay in all cases: Cysteine liganding, probe competition
Format in all cases: binding
VPRBP Protein VPRBP = target: T1, VPRBP Protein VPRBP (Homo sapiens, UniProt Q9Y4B6)
T1 construct: Cells were resuspended in cold PBS on ice and sonicated with a probe sonicator to achieve lysis; endogenous in cells
Summary of the method: (§1)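 Read-out is loss of desthiobiotin iodoacetamide labelling at cysteines, measured on streptavidin-enriched tryptic peptides. Compound preincubation ran 1 hr at 25° C in PBS lysate holding 5 mg/ml proteome before the probe was added.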

[1] = target: T2, GFM1 Elongation factor G, mitochondrial (Homo sapiens, UniProt Q96RP9); conditions: GFM1 Res# 146, uniprot Q96RP9
T2 construct: Cells were resuspended in cold PBS on ice and sonicated with a probe sonicator to achieve lysis; endogenous in cells
Summary of the method: as §1

[2] = target: T3, SRRM2 Serine/arginine repetitive matrix protein 2 (Homo sapiens, UniProt Q9UQ35)
T3 construct: Cells were resuspended in cold PBS on ice and sonicated with a probe sonicator to achieve lysis; endogenous in cells
Summary of the method: as §1

[3] = target: T4, ZNF638 Zinc finger protein 638 (Homo sapiens, UniProt Q14966)
T4 construct: Cells were resuspended in cold PBS on ice and sonicated with a probe sonicator to achieve lysis; endogenous in cells
Summary of the method: as §1

UniProt E7ERA6 = target: T5, UniProt E7ERA6 (Homo sapiens, UniProt E7ERA6)
T5 construct: 200 μL of lysate containing 5 mg/ml proteome was treated with 2 μL of 100× compound stock; endogenous in cells
Source text: (§2) The following 96-well sample prep protocol was used for sample preparation.

UniProt Q9NQ86 = target: T6, UniProt Q9NQ86 (Homo sapiens, UniProt Q9NQ86)
T6 construct: 200 μL of lysate containing 5 mg/ml proteome was treated with 2 μL of 100× compound stock; endogenous in cells
Source text: as §2

UniProt Q99942 = target: T7, UniProt Q99942 (Homo sapiens, UniProt Q99942)
T7 construct: 200 μL of lysate containing 5 mg/ml proteome was treated with 2 μL of 100× compound stock; endogenous in cells
Source text: as §2

UniProt A8MQ27 = target: T8, UniProt A8MQ27 (Homo sapiens, UniProt A8MQ27); conditions: read-out: percent inhibition
T8 construct: Cells were resuspended in cold PBS on ice and sonicated with a probe sonicator to achieve lysis; endogenous in cells
Source text: as §2

UniProt Q6ZMN7 = target: T9, UniProt Q6ZMN7 (Homo sapiens, UniProt Q6ZMN7); conditions: read-out: KB05_500 uM_percent_inhibition
T9 construct: 200 μL of lysate containing 5 mg/ml proteome was treated with 2 μL of 100× compound stock; endogenous in cells
Source text: as §2

[4] = target: T10, CTSC Dipeptidyl peptidase 1 (Homo sapiens, UniProt P53634)
T10 construct: 200 μL of lysate containing 5 mg/ml proteome was treated with 2 μL of 100× compound stock; endogenous in cells
Summary of the method: as §1

[5] = target: T11, MAP1B Microtubule-associated protein 1B (Homo sapiens, UniProt P46821)
T11 construct: Cells were resuspended in cold PBS on ice and sonicated with a probe sonicator to achieve lysis; endogenous in cells
Summary of the method: as §1

UniProt Q9BUZ4 = target: T12, UniProt Q9BUZ4 (Homo sapiens, UniProt Q9BUZ4); conditions: 100 uM
T12 construct: 200 μL of lysate containing 5 mg/ml proteome was treated with 2 μL of 100× compound stock; endogenous in cells
Source text: as §2

UniProt Q8NG27 = target: T13, UniProt Q8NG27 (Homo sapiens, UniProt Q8NG27); conditions: 100 uM
T13 construct: 200 μL of lysate containing 5 mg/ml proteome was treated with 2 μL of 100× compound stock; endogenous in cells
Source text: as §2

UniProt Q9C019 = target: T14, UniProt Q9C019 (Homo sapiens, UniProt Q9C019); conditions: 100 uM
T14 construct: 200 μL of lysate containing 5 mg/ml proteome was treated with 2 μL of 100× compound stock; endogenous in cells
Source text: as §2

T11 sequence (P46821 whole entry): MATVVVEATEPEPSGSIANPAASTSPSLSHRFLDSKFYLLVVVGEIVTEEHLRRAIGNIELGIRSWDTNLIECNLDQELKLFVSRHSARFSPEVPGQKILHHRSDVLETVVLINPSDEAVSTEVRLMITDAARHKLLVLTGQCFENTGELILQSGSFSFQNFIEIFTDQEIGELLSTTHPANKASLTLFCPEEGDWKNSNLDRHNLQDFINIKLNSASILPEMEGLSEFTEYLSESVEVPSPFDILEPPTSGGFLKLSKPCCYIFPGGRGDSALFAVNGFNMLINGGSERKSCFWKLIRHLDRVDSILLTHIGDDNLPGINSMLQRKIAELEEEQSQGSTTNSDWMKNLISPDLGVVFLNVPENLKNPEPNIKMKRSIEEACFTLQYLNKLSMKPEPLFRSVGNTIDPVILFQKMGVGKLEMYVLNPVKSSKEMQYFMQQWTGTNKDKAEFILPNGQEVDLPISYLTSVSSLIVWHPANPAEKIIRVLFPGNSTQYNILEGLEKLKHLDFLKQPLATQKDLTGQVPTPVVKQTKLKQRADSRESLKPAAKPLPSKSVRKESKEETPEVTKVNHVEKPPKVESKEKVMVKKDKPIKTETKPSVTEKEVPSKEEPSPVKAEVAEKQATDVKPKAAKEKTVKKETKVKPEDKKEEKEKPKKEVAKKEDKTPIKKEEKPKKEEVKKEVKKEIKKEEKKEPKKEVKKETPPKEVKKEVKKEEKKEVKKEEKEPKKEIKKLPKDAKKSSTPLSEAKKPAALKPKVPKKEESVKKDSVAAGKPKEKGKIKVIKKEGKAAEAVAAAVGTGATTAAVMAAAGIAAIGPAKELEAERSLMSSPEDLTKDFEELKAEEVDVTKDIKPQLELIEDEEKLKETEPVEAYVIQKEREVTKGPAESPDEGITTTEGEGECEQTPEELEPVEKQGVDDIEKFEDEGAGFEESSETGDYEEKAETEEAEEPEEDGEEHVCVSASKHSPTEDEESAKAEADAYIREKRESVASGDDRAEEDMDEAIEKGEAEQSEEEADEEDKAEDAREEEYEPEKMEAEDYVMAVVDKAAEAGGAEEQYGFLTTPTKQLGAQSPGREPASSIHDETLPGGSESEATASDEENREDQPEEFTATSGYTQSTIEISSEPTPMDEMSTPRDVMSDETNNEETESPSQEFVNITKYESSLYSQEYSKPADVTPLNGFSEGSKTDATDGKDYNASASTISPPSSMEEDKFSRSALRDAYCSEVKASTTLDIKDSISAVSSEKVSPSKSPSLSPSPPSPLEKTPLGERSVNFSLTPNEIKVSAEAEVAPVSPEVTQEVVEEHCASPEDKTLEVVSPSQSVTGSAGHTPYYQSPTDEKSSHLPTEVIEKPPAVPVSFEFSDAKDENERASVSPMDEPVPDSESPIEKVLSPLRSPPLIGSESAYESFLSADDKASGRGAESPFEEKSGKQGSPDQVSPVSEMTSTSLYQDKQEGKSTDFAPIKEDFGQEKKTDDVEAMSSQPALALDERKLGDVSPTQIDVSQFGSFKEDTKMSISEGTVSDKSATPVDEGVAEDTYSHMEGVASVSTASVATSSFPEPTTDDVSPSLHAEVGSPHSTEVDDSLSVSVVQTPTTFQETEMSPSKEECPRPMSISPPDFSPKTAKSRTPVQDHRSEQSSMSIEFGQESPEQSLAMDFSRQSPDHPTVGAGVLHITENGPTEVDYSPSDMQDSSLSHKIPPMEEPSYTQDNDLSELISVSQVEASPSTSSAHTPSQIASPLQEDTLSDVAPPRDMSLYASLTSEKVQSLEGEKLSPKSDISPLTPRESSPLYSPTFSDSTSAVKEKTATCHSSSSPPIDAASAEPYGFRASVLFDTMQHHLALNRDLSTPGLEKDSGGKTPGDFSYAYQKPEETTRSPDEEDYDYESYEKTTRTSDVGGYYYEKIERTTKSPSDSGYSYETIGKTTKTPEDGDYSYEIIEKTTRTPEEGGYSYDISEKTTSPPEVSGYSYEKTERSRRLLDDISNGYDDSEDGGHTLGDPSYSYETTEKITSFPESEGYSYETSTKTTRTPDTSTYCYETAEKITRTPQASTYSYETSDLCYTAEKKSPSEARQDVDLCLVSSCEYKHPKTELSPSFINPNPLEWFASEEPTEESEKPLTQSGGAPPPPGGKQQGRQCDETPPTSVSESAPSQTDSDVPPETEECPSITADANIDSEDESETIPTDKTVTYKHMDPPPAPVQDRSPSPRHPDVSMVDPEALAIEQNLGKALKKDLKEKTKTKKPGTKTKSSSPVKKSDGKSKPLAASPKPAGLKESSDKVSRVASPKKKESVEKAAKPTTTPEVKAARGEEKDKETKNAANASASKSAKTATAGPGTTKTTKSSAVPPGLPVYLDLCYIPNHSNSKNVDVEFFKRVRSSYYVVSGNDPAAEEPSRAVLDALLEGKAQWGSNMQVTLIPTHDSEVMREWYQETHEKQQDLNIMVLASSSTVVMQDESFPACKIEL
T10 sequence (P53634 25-463): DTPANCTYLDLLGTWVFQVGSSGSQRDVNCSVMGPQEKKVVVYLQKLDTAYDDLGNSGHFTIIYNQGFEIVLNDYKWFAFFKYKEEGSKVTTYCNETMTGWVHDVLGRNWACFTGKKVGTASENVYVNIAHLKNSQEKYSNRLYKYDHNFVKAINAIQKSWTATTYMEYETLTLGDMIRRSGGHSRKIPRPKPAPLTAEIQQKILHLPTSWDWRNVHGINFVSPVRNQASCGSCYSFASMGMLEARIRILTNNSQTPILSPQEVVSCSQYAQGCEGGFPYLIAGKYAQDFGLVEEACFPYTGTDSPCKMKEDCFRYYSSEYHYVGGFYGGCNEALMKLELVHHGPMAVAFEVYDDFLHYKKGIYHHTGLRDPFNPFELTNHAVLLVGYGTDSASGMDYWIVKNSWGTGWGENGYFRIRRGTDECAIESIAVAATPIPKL
T5 sequence (E7ERA6 whole entry, change not shown): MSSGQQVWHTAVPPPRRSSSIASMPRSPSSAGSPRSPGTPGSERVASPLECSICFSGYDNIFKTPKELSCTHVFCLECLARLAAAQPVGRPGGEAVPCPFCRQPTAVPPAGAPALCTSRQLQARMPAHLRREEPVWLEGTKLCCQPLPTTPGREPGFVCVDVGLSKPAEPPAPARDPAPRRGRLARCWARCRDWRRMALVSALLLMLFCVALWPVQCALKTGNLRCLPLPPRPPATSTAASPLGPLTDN
T1 sequence (Q9Y4B6 whole entry): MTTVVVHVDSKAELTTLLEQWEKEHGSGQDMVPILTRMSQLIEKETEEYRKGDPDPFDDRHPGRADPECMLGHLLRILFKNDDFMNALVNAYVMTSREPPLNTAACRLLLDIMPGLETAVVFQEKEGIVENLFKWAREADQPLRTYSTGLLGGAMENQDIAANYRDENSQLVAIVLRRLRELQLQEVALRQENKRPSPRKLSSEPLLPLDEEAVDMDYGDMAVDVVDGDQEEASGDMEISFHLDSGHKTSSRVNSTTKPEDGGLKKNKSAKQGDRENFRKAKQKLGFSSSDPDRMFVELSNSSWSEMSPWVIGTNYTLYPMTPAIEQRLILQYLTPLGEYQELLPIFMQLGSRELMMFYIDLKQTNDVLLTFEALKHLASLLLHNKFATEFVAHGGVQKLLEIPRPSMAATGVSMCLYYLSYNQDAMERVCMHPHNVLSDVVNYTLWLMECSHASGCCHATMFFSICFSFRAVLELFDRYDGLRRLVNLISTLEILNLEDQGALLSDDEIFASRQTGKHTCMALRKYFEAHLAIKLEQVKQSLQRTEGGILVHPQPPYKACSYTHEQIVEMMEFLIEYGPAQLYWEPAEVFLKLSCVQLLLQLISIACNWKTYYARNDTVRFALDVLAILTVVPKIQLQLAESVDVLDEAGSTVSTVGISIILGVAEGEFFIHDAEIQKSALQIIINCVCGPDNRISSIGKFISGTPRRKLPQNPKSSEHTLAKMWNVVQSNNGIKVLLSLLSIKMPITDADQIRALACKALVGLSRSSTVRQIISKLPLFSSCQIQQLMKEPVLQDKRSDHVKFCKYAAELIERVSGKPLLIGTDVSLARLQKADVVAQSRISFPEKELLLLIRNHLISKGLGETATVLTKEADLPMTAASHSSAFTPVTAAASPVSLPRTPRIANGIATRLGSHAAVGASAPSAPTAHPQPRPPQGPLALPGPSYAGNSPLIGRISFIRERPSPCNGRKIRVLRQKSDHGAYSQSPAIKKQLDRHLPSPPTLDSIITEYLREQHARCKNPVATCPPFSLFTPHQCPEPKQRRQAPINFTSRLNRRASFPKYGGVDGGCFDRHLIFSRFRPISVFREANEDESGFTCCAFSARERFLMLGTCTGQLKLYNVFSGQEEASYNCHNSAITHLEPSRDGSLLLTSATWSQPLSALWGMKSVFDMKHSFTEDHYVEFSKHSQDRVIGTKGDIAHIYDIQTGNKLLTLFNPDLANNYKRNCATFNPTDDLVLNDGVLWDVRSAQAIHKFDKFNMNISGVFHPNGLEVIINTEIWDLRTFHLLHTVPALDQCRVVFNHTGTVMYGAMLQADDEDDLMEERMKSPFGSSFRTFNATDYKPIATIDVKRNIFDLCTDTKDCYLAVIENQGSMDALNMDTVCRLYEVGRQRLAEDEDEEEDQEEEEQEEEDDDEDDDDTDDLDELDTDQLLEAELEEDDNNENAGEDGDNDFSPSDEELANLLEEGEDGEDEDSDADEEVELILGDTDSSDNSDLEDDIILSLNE
T7 sequence (Q99942 whole entry, change not shown): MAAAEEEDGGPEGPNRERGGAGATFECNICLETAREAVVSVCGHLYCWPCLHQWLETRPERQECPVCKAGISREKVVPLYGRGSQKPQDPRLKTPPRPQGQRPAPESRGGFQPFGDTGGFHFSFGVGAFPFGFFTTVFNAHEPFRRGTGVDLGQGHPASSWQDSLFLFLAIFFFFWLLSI

For `COc1ccc2c(c1)CCCN2C(=O)CCl` [KB02], the Liganded (VPRBP Protein VPRBP; VPRBP Res# 69, uniprot Q9Y4B6) was “YES”, the Liganded (VPRBP Protein VPRBP; VPRBP Res# 967, uniprot Q9Y4B6) was “YES” and the Liganded [1] was “YES”. The Liganded ([2]; SRRM2 Res# 1029, uniprot Q9UQ35) was “YES”, the Liganded ([2]; SRRM2 Res# 1036, uniprot Q9UQ35) was “YES” and the Liganded ([3]; ZNF638 Res# 1023, uniprot Q14966) was “YES”. For the same molecule, the Liganded ([3]; ZNF638 Res# 1026, uniprot Q14966) was “YES”, the percent_inhibition (UniProt E7ERA6; 500 uM) was 38% and the inhibition at 500 µM (UniProt E7ERA6; read-out: percent_inhibition) was 35%. For the same molecule, the inhibition at 100 µM (UniProt Q9NQ86; 100 uM, read-out: KB02_100 uM_percent_inhibition) was 27% and the “KB02_500 uM_percent_inhibition” value (UniProt Q9NQ86; 500 uM) was 88%.

Molecule `C=CC(=O)N(c1ccccc1)c1ccc(Br)cc1` [KB05] has a percent_inhibition (UniProt Q99942; 100 uM) of 15%, an inhibition at 100 µM (UniProt Q99942; read-out: percent_inhibition) of 14% and an inhibition at 500 µM (UniProt A8MQ27) of 44%. For the same molecule, the inhibition at 500 µM (UniProt Q6ZMN7) was 1%.

`O=C(CCl)Nc1cc(C(F)(F)F)cc(C(F)(F)F)c1` [KBO3] was tested, and the Liganded ([4]; CTSC Res# 258, uniprot P53634) was “YES”, the “100 Max” value ([4]; uniprot P53634) was 76.05 and the 100 ave ([4]; uniprot P53634) was 76.05. For the same molecule, the “500 Max” value ([4]; uniprot P53634) was 95.44, the 500 ave ([4]; uniprot P53634) was 95.44 and the Liganded ([5]; MAP1B Res# 382, uniprot P46821) was “YES”. For the same molecule, the 100 ave ([5]; uniprot P46821) was 37.5, the 500 ave ([5]; uniprot P46821) was 75.17 and the “500 Max” value ([5]; uniprot P46821, in % (unit assumed)) was 75.17. The 100 Max ([5]; uniprot P46821, unit assumed) was 37.5%, the percent_inhibition (UniProt Q9BUZ4) was 30% and the “KB03_100 uM_percent_inhibition” value (UniProt Q8NG27) was 16%. For the same molecule, the “KB03_100 uM_percent_inhibition” value (UniProt Q9C019) was 18%.
